Results reported in US20160115540A1, “PRODRUGS AND DRUGS” (Biogen MA Inc., priority 2013, published 2016).
Structures can show the parent of a compound that is named as a salt.

Tested on: jejunum
Assay: Transcriptional profiling on Affymetrix GeneChips, single dose, naïve mice: jejunum
Type: in vivo, C57BL/6 mice
Conditions: jejunum, 100DMF-vs-Veh
Procedure: Treated mice were sacrificed at 2, 7, or 12 hours. Tissues (liver, spleen, kidney, jejunum, cortex, hippocampus, striatum and whole blood) were collected and analyzed by transcriptional profiling on mouse Affymetrix GeneChips.
Tissues (liver, spleen, kidney, jejunum, cortex, hippocampus, striatum and whole blood) were collected and analyzed by transcriptional profiling on mouse Affymetrix GeneChips.
Animals were exposed to CO2 and whole blood collected via cardiac puncture. Two 100 μl aliquots of whole blood were collected in 1.5 mL microcentrifuge tubes and snap frozen in liquid nitrogen. Peripheral (liver, spleen, kidney and jejunum) and CNS brain (cerebellum, hippocampus, striatum and cortex) tissues were harvested and snap frozen in liquid nitrogen, with special care taken to collect tissues of similar size and from the same location. All samples were stored at −80° C. until RNA extraction was conducted.
For RNA preparation, frozen tissues were placed in 2 mL RNAse-free 96-well blocks with 1.5 mL QIAzol Lysis Reagent (QIAgen) and a 3.2 mm stainless steel bead (BioSpec Products, Bartlesville, Okla.). Tissues were disrupted for four cycles of 45 seconds in a Mini-Beadbeater (Biospec Products). RNA was extracted in chloroform and the aqueous phase was mixed with an equal volume of 70% ethanol. Extracted RNA was applied to RNeasy 96 plates and purified by the spin method according to the manufacturer's protocol (RNeasy 96 Universal Tissue Protocol, QIAgen, Hilden Germany).
Automated sample amplifications and biotin labelings were carried out using the NuGEN Ovation RNA Amplification system V2 (Cat #3100), Ovation WB reagent (Cat #1300) and Encore Biotin module (Cat #4200) (NuGEN Technologies, Inc, San Carlos, Calif.) according to manufacturer's recommendations using an Arrayplex automated liquid handler (Beckman Coulter, Indianapolis, Ind.). Two micrograms of biotin labeled sscDNA probe were hybridized to Affymetrix GeneChip Affymetrix HT_MG-430_PM plate arrays with modified conditions as described in Allaire et al. Washing and staining of the hybridized arrays were completed as described in the GeneChip Expression analysis technical manual for HT plate arrays using the Genechip® Array Station (Affymetrix, Santa Clara, Calif.) with modifications as described in Allaire et al. The processed GeneChip® plate arrays were scanned using GeneTitan scanner (Affymetrix, Santa Clara, Calif.).
Affymetrix scans were subject to quality control (QC) measures. These tests included a visual inspection of the distribution of raw signal intensities and an assessment of RNA degradation, relative log expression (RLE), and normalized unsealed standard error (NUSE). All sample scans that passed these QC metrics were included in the analysis.
All CEL files were subjected to GC-content-based Robust Multi-array Average (GCRMA) normalization (version 2.20.0) (Irizarry R A, et al. Nucleic Acids Res 2003; 31:e15; Li C, et al. Genome Biol 2001; 2:[…]0032). Expression levels were log (base 2) transformed.
All calculations and analyses were carried out using R (version 2.11.1) and Bioconductor computational tools (Gentleman R. Springer Science+Business Media 2005).

COC(=O)/C=C/C(=O)OC [DMF, dimethyl fumarate]
FC Tox3 (1436600_PM_at) (2 h): 1.70 | FC Tsku (1440230_PM_at) (2 h): 1.61 | FC Ugt2b5 (1419622_PM_at) (2 h): 3.40 | FC Ugt2b35 (1439624_PM_at) (2 h): 3.22 | FC Ugt2b36 (1455595_PM_at) (2 h): 2.07 | FC Unc5cl (1429950_PM_at) (2 h): −1.53 | FC probe 1441046_PM_at (2 h): 1.54 | FC probe 1443118_PM_at (2 h): 1.91 | FC probe 1444265_PM_at (2 h): 1.75 | FC probe 1445980_PM_at (2 h): 2.92 | FC probe 1446045_PM_at (2 h): 1.52 | FC probe 1447411_PM_at (2 h): 2.88 | FC probe 1459091_PM_at (2 h): 1.98 | FC 9430069I07Rik (1431672_PM_at) (7 h): 2.76 | FC Abcc3 (1428988_PM_at) (7 h): 1.88 | FC Acsm5 (1437662_PM_at) (7 h): 1.60 | FC Acss2 (1446542_PM_at) (7 h): 1.71 | FC Akr1b8 (1448894_PM_at) (7 h): 8.53 | FC Akr1c13 (1418672_PM_at) (7 h): 1.61 | FC Akr1c19 (1455454_PM_at) (7 h): 2.07 | FC Cbr1 (1460196_PM_at) (7 h): 1.65 | FC Cbr3 (1427912_PM_at) (7 h): 22.39 | FC Ces1e (1419510_PM_at) (7 h): 2.10 | FC Ces1f (1424266_PM_s_at) (7 h): 3.58 | FC Ces1g (1449486_PM_at) (7 h): 4.67 | FC Ddc (1426215_PM_at) (7 h): 1.74 | FC G6pd2 (1422327_PM_s_at) (7 h): 1.82 | FC G6pdx (1448354_PM_at) (7 h): 1.54 | FC Gclc (1424296_PM_at) (7 h): 2.06 | FC Gclc (1455959_PM_s_at) (7 h): 1.88 | FC Gsr (1421816_PM_at) (7 h): 2.83 | FC Gss (1441931_PM_x_at) (7 h): 1.89 | FC Gss (1448273_PM_at) (7 h): 1.97 | FC Gsta2 (1421040_PM_a_at) (7 h): 5.81 | FC Gsta2 (1421041_PM_s_at) (7 h): 1.72 | FC Gsta3 (1423436_PM_at) (7 h): 4.27 | FC Gsta3 (1423437_PM_at) (7 h): 3.89 | FC Gstm1 (1416416_PM_x_at) (7 h): 3.19 | FC Gstm1 (1425627_PM_x_at) (7 h): 3.45 | FC Gstm1 (1448330_PM_at) (7 h): 3.40 | FC Gstm2 (1416411_PM_at) (7 h): 1.58 | FC Gstm3 (1427473_PM_at) (7 h): 2.82 | FC Gstm3 (1427474_PM_s_at) (7 h): 1.79 | FC Gstm4 (1424835_PM_at) (7 h): 3.83 | FC Gstm6 (1422072_PM_a_at) (7 h): 1.94 | FC Htatip2 (1451814_PM_a_at) (7 h): 1.51 | FC Nqo1 (1423627_PM_at) (7 h): 2.31 | FC Pir (1429001_PM_at) (7 h): 3.79 | FC Setd4 (1425239_PM_at) (7 h): 1.90 | FC Setd4 (1435405_PM_at) (7 h): 1.50 | FC Setd4 (1460373_PM_a_at) (7 h): 1.50 | FC Slc5a4b (1422757_PM_at) (7 h): 1.67 | FC Txnrd1 (1424487_PM_x_at) (7 h): 1.60 | FC Ugt2b5 (1419622_PM_at) (7 h): 3.42 | FC Ugt2b35 (1439624_PM_at) (7 h): 2.66 | FC Ugt2b36 (1455595_PM_at) (7 h): 2.23 | FC Aldh1a7 (1418601_PM_at) (12 h): 1.65 | FC Gstm1 (1416416_PM_x_at) (12 h): 3.56 | FC Gstm2 (1416411_PM_at) (12 h): 2.04
